Experimental data: PMC4198181, “Gold(I) Complexes of 9-Deazahypoxanthine as Selective Antitumor and Anti-Inflammatory Agents” (PLoS ONE, 2014)

How the values were obtained:
HOS osteosarcoma cells = test: MTT in vitro cytotoxicity, HOS; format: cell-based, human; details: 24 h treatment, read-out: IC50±S.E., HOS
Protocol: (§1) In vitro cytotoxic activity was determined by the MTT assay in human breast adenocarcinoma (MCF7; ECACC no. 86012803), human osteosarcoma (HOS; ECACC no. 87070202), lung carcinoma (A549; ECACC no. 86012804), malignant melanoma (G361; ECACC no. 88030401), cervix epitheloid carcinoma (HeLa; ECACC no. 93021013), ovarian carcinoma (A2780; ECACC no. 93112519), cisplatin-resistant ovarian carcinoma (A2780R; […] ECACC no 105092802) cancer cell lines, purchased from European Collection of Cell Cultures (ECACC). […] The primary culture of human hepatocytes (HEP220, batch number HEP220819) was obtained from Biopredic International (France). The culture medium was Williams and HAM's F-12 (1∶1) supplemented with penicillin, streptomycin, ascorbic acid, linoleic acid, holo-transferin, ethanolamine, glucagon, insulin, dexamethasone, pyruvate, glucose, glutamine, amphotericin. The medium was enriched for plating with 2% foetal calf serum (v/v). The medium was exchanged for a serum-free medium the day after and the culture was stabilized for additional 24 h. Thereafter, the cells were ready for treatments. […] The MTT assay was performed spectrophotometrically at 540 nm (TECAN, Schoeller Instruments LLC). The cytotoxicity data were expressed as the percentage of viability, where 100% represented the treatments with vehicle (0.1% DMF or 0.1% DMSO). The cytotoxicity data from the cancer cell lines were acquired from three independent experiments (conducted in triplicate) using cells from different passages. The IC50 values were calculated from viability curves. The results are presented as arithmetic means±standard error of the mean (S.E.).

[1] = test system: A549 lung carcinoma cells; test: MTT in vitro cytotoxicity, A549; format: cell-based, human; details: 24 h treatment, read-out: IC50±S.E., A549
Protocol: as §1

[2] = test system: G361 malignant melanoma cells; test: MTT in vitro cytotoxicity, G361; format: cell-based, human; details: 24 h treatment, read-out: IC50±S.E., G361
Protocol: as §1

[3] = test system: HeLa cervix epitheloid carcinoma cells; test: MTT in vitro cytotoxicity, HeLa; format: cell-based, human; details: 24 h treatment, read-out: IC50±S.E., HeLa
Protocol: as §1

[4] = test system: λ-carrageenan-induced hind paw edema; test: Carrageenan-induced hind paw edema; format: in vivo, Wistar-SPF rats
Protocol: Wistar-SPF (6–8 weeks male) rats were obtained from AnLab, Ltd. (Prague, Czech Republic). The animals were kept in plexiglass cages at the constant temperature of 22±1°C and relative humidity of 55±5% for at least 1 week before the experiment. They were given food and water ad libitum. All the experimental procedures were performed according to the National Institutes of Health (NIH) Guide for the Care and Use of Laboratory Animals. In addition, all the tests were conducted under the guidelines of the International Association for the Study of Pain [61]. After a one-week adaptation period, male Wistar-SPF rats (200–250 g) were randomly assigned to five groups (n = 7) of the animals in the study. The first, control group, received 25% DMSO (v/v in water, intraperitoneal; i.p.). The next three groups were pretreated with complexes 2, 4 and 5, and involved into the carrageenan-treatment. The fifth group was treated with a non-steroidal anti-inflammatory drug Indomethacin (5 mg/kg), which served as a positive control group (Indomethacin + carrageenan).
(§2) The carrageenan-induced hind paw edema model was used for the determination of anti-inflammatory activity. Animals were i.p. pretreated with complexes 2, 4, and 5 (the dosages of the individual complexes were adjusted to contain the same amount of gold as in 10 mg/kg dose of Auranofin), Indomethacin (5 mg/kg), or 25% DMSO (v/v in water) 30 min prior to the injection of 1% λ-carrageenan solution (50 µL) into the plantar side of right hind paws of the rats. The paw volume was measured immediately after the carrageenan injection (this value was set-up as baseline value for the hind paw volume) and during the next 6 h after the administration of the edematogenic agent using a plethysmometer (model 7159, Ugo Basile, Varese, Italy). The degree of swelling was evaluated as a percentage of the change of the volume of the right hind paw after the carrageenan treatment from the baseline volume. A non-steroidal anti-inflammatory drug Indomethacin was used as a positive control and the obtained data were also compared with the previously reported profile of antiedematous activity for Auranofin [38]. After 6 h, the animals were sacrificed and the edematous feet were dissected, the tissue from the plantar parts was extracted, fixed and stained by a standard hematoxylin/eosin (HE) staining for cytological evaluation of polymorphonuclear cells infiltration.
The statistically significant differences between individual groups during anti- inflammatory testing were evaluated using a one-way ANOVA test for statistical analysis, followed by Tukey's post-hoc test for multiple comparisons. GraphPad Prism 5.02 (GraphPad Software Inc., San Diego, CA, USA) was used to perform the analysis. The results are presented as arithmetic means±S.E. values.

[5] = test system: polymorphonuclear cells infiltration in hind paw tissue; test: Ex vivo histological evaluation of hind paw tissue (HE staining, PMN infiltration); format: in vivo, Wistar-SPF rats; details: 6 h after carrageenan, Indomethacin 5 mg/kg
Protocol: as §2
To assess the tissue consequences connected with the reduction of inflammation caused by the tested compounds after the intraplantar injection of carrageenan, the histopathological observations were made on the tissue sections obtained from the laboratory animals after the plethysmometric experiments were finished. All animals were sacrificed by cervical dislocation, and immediately after that, the tissue samples were taken from the plantar area of hind paws. The histopathological changes in tissues, stained by the standard HE staining (see Figure 10), were evaluated by the presence of the inflammation infiltrate, which contained mainly neutrophils (polymorphonuclear cells - PMN).

[6] = i.p., dose equivalent in gold to 10 mg/kg Auranofin

| SMILES | IC50 (HOS osteosarcoma cells) | IC50 [1] | IC50 [2] | IC50 [3] | antiedematous effect compared with Auranofin ([4]; after 180 min, p<0.001, Auranofin profile from ref 38) | overall antiedematous / anti-inflammatory activity [4, 6] | antiedematous activity profile up to 180 min after carrageenan ([4]; i.p., dose equivalent in gold to 10 mg/kg Auranofin, 30 min before carrageenan) | antiedematous activity after 180 min ([4]; i.p., dose equivalent in gold to 10 mg/kg Auranofin, up to 6 h) | PMN (neutrophil) infiltrate in hind paw tissue sections [5] |
| --- | --- | --- | --- | --- | --- | --- | --- | --- | --- |
| CC(C)Oc1ncnc2cc[n]([Au])c12.c1ccc(P(c2ccccc2)c2ccccc2)cc1 [complex 2, [Au(L2)(PPh3)]] | 0.9 ± 0.2 µM | 17.2 ± 0.7 µM | 3.4 ± 0.1 µM | 16 ± 0.2 µM | even better than that of gold-containing metallodrug Auranofin | significant anti-inflammatory effects | very similar pharmacological profiles of complexes 2 and 4 with the reference drug Indomethacin | elimination of hind paw swelling | mainly scarce and diffuse |
| [Au][n]1ccc2ncnc(OCCc3ccccc3)c21.c1ccc(P(c2ccccc2)c2ccccc2)cc1 [complex 5] | 2.9 ± 0.1 µM | 18.3 ± 0.5 µM | 3.5 ± 0.2 µM | 22.8 ± 0.5 µM |  | inactive |  |  | massive presence of PMN cells |
